# Measured values as given in patent US20250344734A1, “UNSATURATED FATTY ACIDS AND THEIR USE TO MODIFY TASTE” (Firmenich Incorporated, priority 2022, published 2025).
# Molecular target: T1, T2R07 (TAS2R07) (Homo sapiens, UniProt Q9NYW3)
# T1 construct: expressed in transfected cells; host or cells: cells expressing a promiscuous G protein (e.g., G16g44)
# T1 sequence (Q9NYW3 1-318): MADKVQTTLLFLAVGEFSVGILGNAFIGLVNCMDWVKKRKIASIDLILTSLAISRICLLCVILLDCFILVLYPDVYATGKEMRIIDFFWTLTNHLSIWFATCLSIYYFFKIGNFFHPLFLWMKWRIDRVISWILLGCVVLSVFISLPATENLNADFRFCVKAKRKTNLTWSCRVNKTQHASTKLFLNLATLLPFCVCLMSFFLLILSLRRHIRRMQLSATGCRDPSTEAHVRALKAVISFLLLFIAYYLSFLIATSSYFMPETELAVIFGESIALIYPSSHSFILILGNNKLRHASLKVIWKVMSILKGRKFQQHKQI
# Test: FLIPR calcium assay, block of bitter agonist response, T2R07
# Assay type: cell-based
# Settings: unsaturated fatty acid concentration of 200 µM, cells stimulated with known bitter agonist
# Description: Cells expressing a promiscuous […] (e.g., G16g44) were transfected with vectors encoding 18 functional bitter receptor cDNAs, with one receptor per transfection. The cells were transfected directly in 384-well format high-density plates and incubated for 28 hours. Later, cells were loaded with the Ca-specific dye Fluo4-AM. After an incubation of 60 minutes, excess dye is washed off, and cells are stimulated with a known bitter agonist for each receptor and various unsaturated fatty acids. Changes in intracellular fluorescence are recorded using a FLIPR instrument. Bitter antagonists and corresponding receptors are identified based on percentage inhibition of agonist's activity on a given receptor.
# The above protocol was carried out using 16 different unsaturated fatty acids. A particular T2R receptor was identified as being antagonized by a particular unsaturated fatty acid if it triggered a >25% block of agonist's cellular response at 200 μM concentration of unsaturated fatty acid. […] Table 2 indicates the sixteen (16) compounds tested by their compound number from Table 1 above. The 18 bitter taste receptors screened are the human bitter taste receptors we named. […]
smiles,measurement,value
CC(C)=CCC/C(C)=C/C(=O)O [Compound 129],"percentage block of cellular response over baseline, 07",>90%
